PubChem BioAssay AID1963875 (Molecular Pharmacology Branch, DTP, NCI, 2024)

Test system: KRAS-mutant PDC complex spheroid viability
Experiment: Anticancer human tumor 186277-243-T-J2-PDC patient-derived colon adenocarcinoma cell line growth inhibition [KRAS2]
Conditions: for IC50: curve of first compound; for viability, T/C: stronger effect = lower value
In short: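 KRAS-mutant tumor cells were grown as spheroids with HUVEC endothelial cells and human MSCs as stroma. Targeted agents were tested alone and with KRAS pathway inhibitors. Doses started at or near clinical Cmax, or 10 microM, descending half-log.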

[1] = second compound 0.1 µM, first compound 0.0316 µM
[2] = second compound 0.1 µM, first compound 0.1 µM
[3] = second compound 0.316 µM, first compound 0.0316 µM
[4] = second compound 0.316 µM, first compound 0.1 µM
[5] = second compound 1 µM, first compound 0.0316 µM
[6] = second compound 1 µM, first compound 0.1 µM
[7] = second compound 3.16 µM, first compound 0.0316 µM
[8] = second compound 3.16 µM, first compound 0.1 µM
[9] = second compound 10 µM, first compound 0.0316 µM
[10] = second compound 10 µM, first compound 0.1 µM
[11] = second compound 0.1 µM, first compound 0.316 µM
[12] = second compound 0.1 µM, first compound 1 µM
[13] = second compound 0.1 µM, first compound 3.16 µM
[14] = second compound 0.1 µM, first compound 10 µM
[15] = second compound 0.316 µM, first compound 0.316 µM
[16] = second compound 0.316 µM, first compound 1 µM
[17] = second compound 0.316 µM, first compound 3.16 µM
[18] = second compound 0.316 µM, first compound 10 µM
[19] = second compound 1 µM, first compound 0.316 µM
[20] = second compound 1 µM, first compound 1 µM
[21] = second compound 1 µM, first compound 3.16 µM
[22] = second compound 1 µM, first compound 10 µM
[23] = second compound 3.16 µM, first compound 0.316 µM
[24] = second compound 3.16 µM, first compound 1 µM
[25] = second compound 3.16 µM, first compound 3.16 µM
[26] = second compound 3.16 µM, first compound 10 µM
[27] = second compound 10 µM, first compound 0.316 µM
[28] = second compound 10 µM, first compound 1 µM
[29] = second compound 10 µM, first compound 3.16 µM
[30] = second compound 10 µM, first compound 10 µM
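Throughout, for viability, T/C: viability read after seven days of compound exposure; 100% = DMSO vehicle-treated spheroids so lower means less viable.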

With `CN(C)C/C=C/C(=O)Nc1cc2c(Nc3ccc(F)c(Cl)c3)ncnc2cc1O[C@H]1CCOC1` + COc1cc2nc(C)nc(NC(C)c3cc(N)cc(C(F)(F)F)c3)c2cc1OC1CCOC1 as the compound, how does the IC50 (second compound 0.1 µM) read?
Its IC50 is > 100 nM.

And the IC50 (second compound 0.316 µM)?
The IC50 was > 100 nM.

What about the IC50 (second compound 1 µM) of the same compound?
Its IC50 is > 100 nM.

And the IC50 (second compound 3.16 µM)?
Its IC50 is > 100 nM.

And the IC50 (second compound 10 µM)?
The IC50 was > 100 nM.

And the viability, T/C (second compound 0.1 µM, first compound 0.000316 µM)?
The viability, T/C was 102%.

What about the viability, T/C (second compound 0.1 µM, first compound 0.001 µM) of the same compound?
Its viability, T/C is 107%.

What about the viability, T/C (second compound 0.1 µM, first compound 0.00316 µM) of the same compound?
The viability, T/C was 112%.

And the viability, T/C (second compound 0.1 µM, first compound 0.01 µM)?
Its viability, T/C is 110%.

And the viability, T/C [1]?
Its viability, T/C is 108%.

What about the viability, T/C [2] of the same compound?
Its viability, T/C is 96.8%.

And the viability, T/C (second compound 0.316 µM, first compound 0.000316 µM)?
The viability, T/C was 94.3%.

What about the viability, T/C (second compound 0.316 µM, first compound 0.001 µM) of the same compound?
Its viability, T/C is 105%.

And the viability, T/C (second compound 0.316 µM, first compound 0.00316 µM)?
Its viability, T/C is 106%.

And the viability, T/C (second compound 0.316 µM, first compound 0.01 µM)?
The viability, T/C was 115%.

What about the viability, T/C [3] of the same compound?
The viability, T/C was 99.2%.

What about the viability, T/C [4] of the same compound?
The viability, T/C was 89.2%.

What about the viability, T/C (second compound 1 µM, first compound 0.000316 µM) of the same compound?
The viability, T/C was 96.7%.

And the viability, T/C (second compound 1 µM, first compound 0.001 µM)?
Its viability, T/C is 93.8%.

What about the viability, T/C (second compound 1 µM, first compound 0.00316 µM) of the same compound?
Its viability, T/C is 91%.

And the viability, T/C (second compound 1 µM, first compound 0.01 µM)?
The viability, T/C was 105%.

What about the viability, T/C [5] of the same compound?
The viability, T/C was 113%.

And the viability, T/C [6]?
Its viability, T/C is 105%.

What about the viability, T/C (second compound 3.16 µM, first compound 0.000316 µM) of the same compound?
The viability, T/C was 93.4%.

What about the viability, T/C (second compound 3.16 µM, first compound 0.001 µM) of the same compound?
Its viability, T/C is 97.9%.

And the viability, T/C (second compound 3.16 µM, first compound 0.00316 µM)?
Its viability, T/C is 97.4%.

What about the viability, T/C (second compound 3.16 µM, first compound 0.01 µM) of the same compound?
The viability, T/C was 100%.

And the viability, T/C [7]?
Its viability, T/C is 84.4%.

And the viability, T/C [8]?
The viability, T/C was 79.3%.

What about the viability, T/C (second compound 10 µM, first compound 0.000316 µM) of the same compound?
Its viability, T/C is 109%.

And the viability, T/C (second compound 10 µM, first compound 0.001 µM)?
Its viability, T/C is 105%.

And the viability, T/C (second compound 10 µM, first compound 0.00316 µM)?
The viability, T/C was 114%.

And the viability, T/C (second compound 10 µM, first compound 0.01 µM)?
The viability, T/C was 91.2%.

What about the viability, T/C [9] of the same compound?
The viability, T/C was 81.4%.

And the viability, T/C [10]?
The viability, T/C was 61.4%.

How did the IC50 (second compound 0.1 µM) turn out when `COC(=O)c1ccc2c(C(=Nc3ccc(N(C)C(=O)CN4CCN(C)CC4)cc3)c3ccccc3)c(O)[nH]c2c1` + COc1cc2nc(C)nc(NC(C)c3cc(N)cc(C(F)(F)F)c3)c2cc1OC1CCOC1 was run?
The IC50 was 2190 nM.

And the IC50 (second compound 0.316 µM)?
Its IC50 is 2210 nM.

And the IC50 (second compound 1 µM)?
Its IC50 is 1970 nM.

What about the IC50 (second compound 3.16 µM) of the same compound?
The IC50 was 1450 nM.

And the IC50 (second compound 10 µM)?
The IC50 was 463 nM.

What about the viability, T/C [1] of the same compound?
Its viability, T/C is 99%.

And the viability, T/C [2]?
The viability, T/C was 108%.

And the viability, T/C [11]?
The viability, T/C was 106%.

What about the viability, T/C [12] of the same compound?
The viability, T/C was 119%.

And the viability, T/C [13]?
The viability, T/C was 22.8%.

And the viability, T/C [14]?
The viability, T/C was 13.4%.

And the viability, T/C [3]?
Its viability, T/C is 87.2%.

What about the viability, T/C [4] of the same compound?
The viability, T/C was 102%.

And the viability, T/C [15]?
Its viability, T/C is 100%.

And the viability, T/C [16]?
The viability, T/C was 104%.

And the viability, T/C [17]?
The viability, T/C was 28.3%.

What about the viability, T/C [18] of the same compound?
Its viability, T/C is 10.9%.

What about the viability, T/C [5] of the same compound?
Its viability, T/C is 95.6%.

What about the viability, T/C [6] of the same compound?
Its viability, T/C is 98.6%.

And the viability, T/C [19]?
Its viability, T/C is 106%.

What about the viability, T/C [20] of the same compound?
The viability, T/C was 115%.

And the viability, T/C [21]?
Its viability, T/C is 12.7%.

What about the viability, T/C [22] of the same compound?
Its viability, T/C is 8.29%.

What about the viability, T/C [7] of the same compound?
The viability, T/C was 96.6%.

And the viability, T/C [8]?
The viability, T/C was 94%.

What about the viability, T/C [23] of the same compound?
The viability, T/C was 114%.

What about the viability, T/C [24] of the same compound?
Its viability, T/C is 72%.

What about the viability, T/C [25] of the same compound?
The viability, T/C was 5.65%.

And the viability, T/C [26]?
Its viability, T/C is 0.14%.

And the viability, T/C [9]?
Its viability, T/C is 74.5%.

What about the viability, T/C [10] of the same compound?
Its viability, T/C is 81.5%.

And the viability, T/C [27]?
The viability, T/C was 62.8%.

What about the viability, T/C [28] of the same compound?
The viability, T/C was 22.1%.

What about the viability, T/C [29] of the same compound?
The viability, T/C was 0.18%.

And the viability, T/C [30]?
Its viability, T/C is 0.19%.

Which results are given for `O=C(c1cc(Cc2n[nH]c(=O)c3ccccc23)ccc1F)N1CCN(C(=O)C2CC2)CC1` + COc1cc2nc(C)nc(NC(C)c3cc(N)cc(C(F)(F)F)c3)c2cc1OC1CCOC1?
IC50 (second compound 0.1 µM): 8250 nM; IC50 (second compound 0.316 µM): 5900 nM; IC50 (second compound 1 µM): 8780 nM; IC50 (second compound 3.16 µM): 4490 nM; IC50 (second compound 10 µM): 872 nM; viability, T/C [1]: 107%; viability, T/C [2]: 105%; viability, T/C [11]: 114%; viability, T/C [12]: 116%; viability, T/C [13]: 99.1%; viability, T/C [14]: 40.1%; viability, T/C [3]: 105%; viability, T/C [4]: 102%; viability, T/C [15]: 107%; viability, T/C [16]: 116%; viability, T/C [17]: 67.9%; viability, T/C [18]: 34.8%; viability, T/C [5]: 111%; viability, T/C [6]: 104%; viability, T/C [19]: 107%; viability, T/C [20]: 122%; viability, T/C [21]: 88.2%; viability, T/C [22]: 45.1%; viability, T/C [7]: 109%; viability, T/C [8]: 98.3%; viability, T/C [23]: 109%; viability, T/C [24]: 110%; viability, T/C [25]: 61%; viability, T/C [26]: 25.1%; viability, T/C [9]: 102%; viability, T/C [10]: 101%; viability, T/C [27]: 81.3%; viability, T/C [28]: 48.4%; viability, T/C [29]: 11.5%; viability, T/C [30]: 10.1%
